The test system of assay [1] is NF-kB reporter in Jurkat cells. Put plainly: NF-kB reporter assay in Jurkat cells stimulated with aCD3/aCD28/PMA. The format is cell-based. Particulars: Homo sapiens, read-out: NF-kB Reporter Assay IC50. In a few lines: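 Luminescence (One-Glo) from the NF-kB reporter yielded IC50 values. Stimulation lasted 4 h at 37° C with aCD3, aCD28 and PMA (final 5, 5 and 0.03 […]), after 1 h compound pre-exposure of 25,000 Jurkat cells per well in serum-free RPMI.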

The target of the next assay is Avi-tagged FL MALT-1 (Homo sapiens (Human), UniProt Q9UDY8). Description: MALT-1 Fluorogenic Peptide Cleavage Assay (MALT1 inhibition assay). The format is biochemical. The note with it: Ac-LRSR-AMC peptide substrate, 30 min pre-incubation, 90 min reaction at room temperature. The procedure, abridged: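 Cleavage of Ac-LRSR-AMC, read as fluorescence at 342/441 nm after 90 min at room temperature, with substrate working stocks of 50 μM (Km) or 280 μM (10×Km). Enzyme, Avi-tagged full-length MALT-1 (40 nM stock), was first pre-incubated 30 min with compound in citrate/HEPES pH 6.89 buffer with TCEP, EDTA, CHAPS and 2% DMSO; IC50 fitted from normalised % inhibition.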
Chain of Avi-tagged FL MALT-1 (Q9UDY8 whole entry): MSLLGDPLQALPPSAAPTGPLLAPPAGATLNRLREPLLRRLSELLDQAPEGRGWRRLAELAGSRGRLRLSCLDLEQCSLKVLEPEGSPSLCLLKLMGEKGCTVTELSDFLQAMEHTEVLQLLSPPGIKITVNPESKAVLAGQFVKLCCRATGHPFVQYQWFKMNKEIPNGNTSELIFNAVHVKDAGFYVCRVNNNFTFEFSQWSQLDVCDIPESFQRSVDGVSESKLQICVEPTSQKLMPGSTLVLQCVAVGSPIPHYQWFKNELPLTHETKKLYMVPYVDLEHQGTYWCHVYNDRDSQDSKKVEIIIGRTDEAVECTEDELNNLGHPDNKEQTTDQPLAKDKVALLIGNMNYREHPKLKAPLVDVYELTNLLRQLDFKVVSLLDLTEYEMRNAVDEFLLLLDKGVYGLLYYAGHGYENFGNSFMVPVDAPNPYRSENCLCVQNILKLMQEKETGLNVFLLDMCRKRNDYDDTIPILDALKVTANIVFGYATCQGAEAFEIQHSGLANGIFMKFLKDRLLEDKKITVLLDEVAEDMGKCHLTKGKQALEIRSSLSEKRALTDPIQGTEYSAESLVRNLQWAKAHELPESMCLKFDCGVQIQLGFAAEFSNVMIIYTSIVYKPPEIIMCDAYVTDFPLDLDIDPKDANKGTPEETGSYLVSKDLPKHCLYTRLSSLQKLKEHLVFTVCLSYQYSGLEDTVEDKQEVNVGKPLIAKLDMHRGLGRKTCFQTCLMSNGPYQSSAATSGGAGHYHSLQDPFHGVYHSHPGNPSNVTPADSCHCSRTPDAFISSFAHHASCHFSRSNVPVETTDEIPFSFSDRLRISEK

Where [2] appears, read: Jurkat cells, 1 hr compound pre-incubation, aCD3/aCD28/PMA stimulation 4 hr, One-Glo readout.

Consider 23 molecules from patent US20240150321A1, “PYRAZOLYLSULFONAMIDE COMPOUNDS AND THEIR USE IN THERAPY” (HOTSPOT THERAPEUTICS, INC., priority 2022, published 2024).

The structures appear in SMILES notation. Like-named read-outs stand apart in the source and are kept apart here.

On to `COc1ccc2cnn(C)c2c1NS(=O)(=O)c1cnn(-c2cc(C3(OC)CC(C)C3)ccn2)c1` (stereo not shown) [Compound I-142, N-(6-methoxy-1-methyl-1H-indazol-7-yl)-1-(4-(1-methoxy-3-methylcyclobutyl)pyridin-2-yl)-1H-pyrazole-4-sulfonamide], for which the IC50 in assay [1] (setting [2]) is < 400 nM; at Avi-tagged FL MALT-1, 400 to 1000 nM.

Turning to `Cn1ncc2cccc(NS(=O)(=O)c3cnn(-c4cc(C5(O)CCCCC5)ccn4)c3)c21` [Compound I-256, 1-[4-(1-hydroxycyclohexyl)pyridin-2-yl]-N-(1-methylindazol-7-yl)pyrazole-4-sulfonamide], the IC50 in assay [1] (setting [2]) is < 400 nM; against Avi-tagged FL MALT-1 it was > 2500 nM.

`COc1ccc2[nH]nc(C)c2c1NS(=O)(=O)c1cnn(-c2ccnc(C(F)(F)F)c2)c1` [Compound I-79, N-(5-Methoxy-3-Methyl-1H-Indazol-4-yl)-1-(2-(Trifluoromethyl)Pyridin-4-yl)-1H-Pyrazole-4-Sulfonamide]: the IC50 was < 400 nM in assay [1] (setting [2]) and ≤ 400 nM against Avi-tagged FL MALT-1.

Turning to `COc1ccc2cnn(C)c2c1NS(=O)(=O)c1cnn(-c2cc(N3CC(C)(C#N)C3)ccn2)c1` [Compound I-461], the values for the IC50 (in assay [1] (setting [2]); against Avi-tagged FL MALT-1) were 400 to 1000 nM and > 2500 nM, respectively.

`COc1ccc2cnn(C)c2c1NS(=O)(=O)c1cnn(-c2cc(N3CC(F)(F)C3)ccn2)c1` [Compound I-443, 1-[4-(3,3-difluoroazetidin-1-yl)pyridin-2-yl]-N-(6-methoxy-1-methylindazol-7-yl)pyrazole-4-sulfonamide]: the IC50 was < 400 nM in assay [1] (setting [2]) and 1000 to 2500 nM against Avi-tagged FL MALT-1.

As to `Cn1ncc2cccc(NS(=O)(=O)c3cnn(-c4cc(C5(O)CCC5)ccn4)c3)c21` [Compound I-107, 1-(4-(1-Hydroxycyclobutyl)Pyridin-2-yl)-N-(1-Methyl-1H-Indazol-7-yl)-1H-Pyrazole-4-Sulfonamide], the IC50 is < 400 nM in assay [1] (Jurkat) and > 2500 nM against Avi-tagged FL MALT-1.

In the case of `COc1ccc2cnn(C)c2c1NS(=O)(=O)c1cnn(-c2cc(C3(OC)CC(C)C3)ccn2)c1` (single isomer, unassigned) [Compound I-364, N-(6-methoxy-1-methyl-1H-indazol-7-yl)-1-(4-(1-methoxy-3-methylcyclobutyl)pyridin-2-yl)-1H-pyrazole-4-sulfonamide], the IC50 was < 400 nM in assay [1] (setting [2]) and 400 to 1000 nM at Avi-tagged FL MALT-1.

Consider `COc1ncc2cnn(C)c2c1NS(=O)(=O)c1cnn(-c2cc(N3CC(C)(C)C3)ccn2)c1` [Compound I-385], for which the IC50 is < 400 nM in assay [1] (setting [2]) and > 2500 nM against Avi-tagged FL MALT-1.

Regarding `CC1CN(c2ccnc(-n3cc(S(=O)(=O)Nc4cccc5cnn(C)c45)cn3)c2)C1` [Compound I-356, N-(1-methyl-1H-indazol-7-yl)-1-(4-(3-methylazetidin-1-yl)pyridin-2-yl)-1H-pyrazole-4-sulfonamide], the IC50 in assay [1] (setting [2]) was < 400 nM; on Avi-tagged FL MALT-1 it was > 2500 nM.

With `COc1ccc2cnn(C)c2c1NS(=O)(=O)c1cn(-c2cc(C(F)(F)F)ccn2)nc1C` [Compound I-83, N-(6-Methoxy-1-Methyl-1H-Indazol-7-yl)-3-Methyl-1-(4-(Trifluoromethyl)Pyridin-2-yl)-1H-Pyrazole-4-Sulfonamide], the values for the IC50 (in assay [1] (setting [2]); on Avi-tagged FL MALT-1) were < 400 nM and ≤ 400 nM, respectively.

Turning to `CCC(C)(O)c1ccnc(-n2cc(S(=O)(=O)Nc3c(OC)ccc4cnn(C)c34)cn2)c1` (single isomer, unassigned) [Compound I-315, 1-(4-(2-hydroxybutan-2-yl)pyridin-2-yl)-N-(6-methoxy-1-methyl-1H-indazol-7-yl)-1H-pyrazole-4-sulfonamide], the IC50 is < 400 nM in assay [1] (setting [2]) and 400 to 1000 nM at Avi-tagged FL MALT-1.

As for `Cc1ccc2[nH]nc(C)c2c1NS(=O)(=O)c1cnn(-c2ccnc(C(F)(F)F)c2)c1` [Compound I-74, N-(3,5-Dimethyl-1H-Indazol-4-yl)-1-(2-(Trifluoromethyl)Pyridin-4-yl)-1H-Pyrazole-4-Sulfonamide], the IC50 in assay [1] (setting [2]) was 1000 to 2500 nM; on Avi-tagged FL MALT-1, ≤ 400 nM.

On to `COC1CC(c2ccnc(-n3cc(S(=O)(=O)Nc4cccc5cnn(C)c45)cn3)c2)C1` (stereo not shown) [Compound I-399, 1-(4-(3-methoxycyclobutyl)pyridin-2-yl)-N-(1-methyl-1H-indazol-7-yl)-1H-pyrazole-4-sulfonamide], for which the figures for the IC50 (in assay [1] (setting [2]); at Avi-tagged FL MALT-1) were < 400 nM and > 2500 nM, respectively.

With `Cn1ncc2cccc(NS(=O)(=O)c3cnn(-c4cc(C(F)(F)F)c(Cl)cn4)c3)c21` [Compound I-121, 1-(5-Chloro-4-(Trifluoromethyl)Pyridin-2-yl)-N-(1-Methyl-1H-Indazol-7-yl)-1H-Pyrazole-4-Sulfonamide], the IC50 in assay [1] (setting [2]) is < 400 nM; against Avi-tagged FL MALT-1, 400 to 1000 nM.

In the case of `COc1ccc2cnn(C)c2c1NS(=O)(=O)c1cnn(-c2cc(N3CCCCCC3)ccn2)c1` [Compound I-392], the values for the IC50 (in assay [1] (setting [2]); against Avi-tagged FL MALT-1) were < 400 nM and > 2500 nM, respectively.

Regarding `COc1ccc2cnn(C)c2c1NS(=O)(=O)c1cnn(-c2cc(N3CC(C)(C)C3)ccn2)c1` [Compound I-370, 1-[4-(3,3-dimethylazetidin-1-yl)pyridin-2-yl]-N-(6-methoxy-1-methylindazol-7-yl)pyrazole-4-sulfonamide], the IC50 in assay [1] (setting [2]) was < 400 nM; on Avi-tagged FL MALT-1, > 2500 nM.

Turning to `CN1CCC[C@H](n2cc(S(=O)(=O)Nc3cccc4cnn(C)c34)cn2)C1` [Compound I-309], the IC50 (in assay [1] (setting [2]); against Avi-tagged FL MALT-1) was > 2500 nM throughout.

Take `COc1ccc2cnn(C)c2c1NS(=O)(=O)c1cnn(-c2cnn3c2COCC3)c1` [Compound I-474, N-(6-methoxy-1-methylindazol-7-yl)-1-{4H,6H,7H-pyrazolo[3,2-c][1,4]oxazin-3-yl}pyrazole-4-sulfonamide]: the IC50 in assay [1] (setting [2]) is 400 to 1000 nM; at Avi-tagged FL MALT-1, 1000 to 2500 nM.

In the case of `CCc1ccc2cnn(C)c2c1NS(=O)(=O)c1cnn(-c2ccnc(C(F)(F)F)c2)n1` [Compound I-28, N-(6-Ethyl-1-Methyl-1H-Indazol-7-yl)-2-(2-(Trifluoromethyl) Pyridin-4-yl)-2H-1,2,3-Triazole-4-Sulfonamide], the results for the IC50 (in assay [1] (setting [2]); against Avi-tagged FL MALT-1) were 400 to 1000 nM and ≤ 400 nM, respectively.

Regarding `COc1ccc2cnn(C)c2c1NS(=O)(=O)c1cnn(-c2cc(C(C)(C)C)ccn2)c1` [Compound I-115, 1-(4-(tert-butyl)pyridin-2-yl)-N-(6-methoxy-1-methyl-1H-indazol-7-yl)-1H-pyrazole-4-sulfonamide], the IC50 is < 400 nM in assay [1] (setting [2]) and ≤ 400 nM on Avi-tagged FL MALT-1.

As to `CCc1ccc2[nH]nc(C)c2c1N(C)S(=O)(=O)c1cnn(-c2ccnc(C(F)(F)F)c2)c1` [Compound I-62, N-(5-Ethyl-3-Methyl-1H-Indazol-4-yl)-N-Methyl-1-(2-(Trifluoromethyl)Pyridin-4-yl)-1H-Pyrazole-4-Sulfonamide], the IC50 in assay [1] (setting [2]) is 400 to 1000 nM; against Avi-tagged FL MALT-1 it was ≤ 400 nM.

Regarding `Cn1ncc2ccc(CC#N)c(NS(=O)(=O)c3cnn(-c4ccnc(C(F)(F)F)c4)c3)c21` [Compound I-6, N-(6-(Cyanomethyl)-1-Methyl-1H-Indazol-7-yl)-1-(2-(Trifluoromethyl)Pyridin-4-yl)-1H-Pyrazole-4-Sulfonamide], the IC50 in assay [1] (setting [2]) lay in the range of 1000 to 2500 nM; against Avi-tagged FL MALT-1, 400 to 1000 nM.

As for `COc1ncc2cnn(C)c2c1NS(=O)(=O)c1cnn(-c2cc(N3CCC(C)CC3)ccn2)c1` [Compound I-407], the IC50 is < 400 nM in assay [1] (setting [2]) and > 2500 nM at Avi-tagged FL MALT-1.
